Reference: ChEMBL document CHEMBL4419166, “Use of small molecule inhibitors to klf10 for modulation of t regulatory cells and cancer immunotherapy” (2017)
Activity calls are given as the source filed them. No cut-off for these calls is given here.

Legend:
[1] = target: T1, Krueppel-like factor 10 (Mus musculus) (UniProt O89091); assay: Inhibition of KLF10 in mouse CD4+CD25- T cells assessed as reduction in checkpoint markers on iTregs by measuring PDL1 expression level; type: cell-based; parameters: scale not given: the % may be the effect or the level left
T1 sequence (whole entry): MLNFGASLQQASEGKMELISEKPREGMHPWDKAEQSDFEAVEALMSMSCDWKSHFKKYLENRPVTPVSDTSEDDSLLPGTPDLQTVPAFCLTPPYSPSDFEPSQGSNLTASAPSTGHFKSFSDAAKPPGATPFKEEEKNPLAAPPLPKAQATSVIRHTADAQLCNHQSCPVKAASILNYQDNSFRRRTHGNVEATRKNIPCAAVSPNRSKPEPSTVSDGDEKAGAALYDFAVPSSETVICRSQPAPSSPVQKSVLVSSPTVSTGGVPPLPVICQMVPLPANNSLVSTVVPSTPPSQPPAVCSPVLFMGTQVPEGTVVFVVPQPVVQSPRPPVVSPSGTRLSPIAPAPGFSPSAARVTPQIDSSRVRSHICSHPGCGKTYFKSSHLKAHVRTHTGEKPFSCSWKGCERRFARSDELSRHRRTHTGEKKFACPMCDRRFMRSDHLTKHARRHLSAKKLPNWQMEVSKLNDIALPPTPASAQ

[2] = target: T1, Krueppel-like factor 10 (Mus musculus); assay: Inhibition of KLF10 in mouse CD4+CD25- T cells assessed as reduction in Foxp3 mRNA expression incubated for 5 days by real time qPCR analysis relative to control; type: cell-based
[3] = target: T1, Krueppel-like factor 10 (Mus musculus); assay: Inhibition of KLF10 in mouse CD4+CD25- T cells assessed as reduction in PD1 mRNA expression at 50 uM incubated for 5 days by real time qPCR analysis relative to control; type: cell-based
[4] = target: T1, Krueppel-like factor 10 (Mus musculus); assay: Inhibition of KLF10 in mouse CD4+CD25- T cells assessed as reduction in checkpoint markers on iTregs by measuring PD1 expression level; type: cell-based; parameters: scale not given: the % may be the effect or the level left
[5] = target: T1, Krueppel-like factor 10 (Mus musculus); assay: Inhibition of KLF10 in mouse CD4+CD25- T cells assessed as reduction in Foxp3 mRNA expression at 50 uM incubated for 5 days by real time qPCR analysis relative to control; type: cell-based
[6] = target: T1, Krueppel-like factor 10 (Mus musculus); assay: Inhibition of KLF10 in mouse CD4+CD25- T cells assessed as reduction in checkpoint markers on iTregs by measuring CTLA4 expression level; type: cell-based; parameters: scale not given: the % may be the effect or the level left
[7] = target: Krueppel-like factor 1 (Homo sapiens) (UniProt Q13351); assay: Inhibition of GST-tagged KLF1 (unknown origin) binding to double-stranded DNA at 40 uM by electromobility gel shift assay relative to control
[8] = target: Krueppel-like factor 1 (Homo sapiens) (UniProt Q13351); assay: Inhibition of GST-tagged KLF1 (unknown origin) binding to double-stranded DNA at 8 uM by electromobility gel shift assay relative to control
[9] = tested on: B16; assay: Antitumor activity against mouse B16cells implanted in mouse assessed as reduction tumor volume at 20 mg/kg dosed via local injection on day 0 and measured from day 4 to day 13; type: functional, organism-based
[10] = tested on: Mus musculus; assay: Antitumor activity against mouse TRAMP-C2 cells implanted in mouse assessed as reduction tumor volume at 200 mg/kg, ip dosed on day 3 to 7; type: functional, organism-based
[11] = tested on: Mus musculus; assay: Suppression of TGF-beta1 expression in CD4+ T cells isolated from mouse B16 cells implanted mouse at 25 to 100 mg/kg, ip; type: functional, organism-based
[12] = tested on: B16; assay: Antitumor activity against mouse B16 cells implanted in mouse assessed as reduction tumor volume at 200 mg/kg, ip dosed on day 3 to 7; type: functional, organism-based

Krueppel-like factor 1 (Homo sapiens), sequence (Q13351 whole entry): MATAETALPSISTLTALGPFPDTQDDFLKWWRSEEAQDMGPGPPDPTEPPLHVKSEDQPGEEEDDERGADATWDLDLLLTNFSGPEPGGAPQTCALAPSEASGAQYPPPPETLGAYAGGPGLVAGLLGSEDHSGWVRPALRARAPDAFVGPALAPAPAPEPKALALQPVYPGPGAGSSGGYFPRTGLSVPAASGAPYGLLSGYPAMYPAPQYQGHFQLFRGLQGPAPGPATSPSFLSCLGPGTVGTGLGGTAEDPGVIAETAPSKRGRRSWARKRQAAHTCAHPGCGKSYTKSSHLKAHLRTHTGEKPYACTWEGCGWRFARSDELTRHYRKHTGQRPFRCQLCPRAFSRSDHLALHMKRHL

| Compound | Activity [1] [%] | inhibition [2] | inhibition [3] | Activity [4] [%] | inhibition [5] [%] | Activity [6] [%] | inhibition [7] | inhibition [8] | Activity [9] | inhibition [10] | inhibition [11] | inhibition [12] |
| --- | --- | --- | --- | --- | --- | --- | --- | --- | --- | --- | --- | --- |
| COc1ccc(C(=O)COC(=O)c2cc(C)ccc2O)cc1 | 53.1 | Active | Active | 47.6 | 82.5 | 92 | inactive | inactive |  |  |  |  |
| Cc1ccc(OCC(=O)c2cc(C)c(O)cc2O)cc1 | 43.7 | Active |  | 49.4 |  | 88.7 | inactive | inactive | Active | Active | Active | Active |
